According to patent US20210169993A1, “TREATMENT OF A SUBTYPE OF ASD” (STALICLA SA, priority 2017, published 2021):

Test system: ASD phenotype 1 lymphoblastoid cell lines
Assay: NADH production in Phenotype Mammalian MicroArrays (PM-M, Biolog), ASD phenotype 1 cells
Type: cell-based, human
Details: FIG. 1 (AUC) and Table 1 (endpoint absorbance)
Protocol: From all subjects, blood samples were collected and lymphoblastoid cell lines generated. Briefly, tubes containing anticoagulant citrate dextrose (ACD) were used to collect blood samples via venipuncture, in order to ensure that the blood cells remained metabolically active. The tubes were kept at room temperature and processed within 24 hours.
Cell lines were obtained by immortalization of lymphocytes from blood samples using Epstein-Barr virus.
Energy production of cells was measured using commercially available Phenotype Mammalian MicroArrays (PM-Ms, Biolog, Hayward, Calif., USA).
The compound in each well was designed to be used by the cells, either as the sole energy source or as the metabolic effector influencing the utilization of an energy source (α-D-glucose) added in the cell suspension. […] Before plating, cell viability and number were assessed utilizing a BioRad cell counter and a trypan blue dye. The concentration of live cells required for plating was 4×10^5 cells/mL, corresponding to 20,000 cells per well in a volume of 50 μL. […] Cells were incubated for 48 h at 37° C. in 5% CO2, using the modified Biolog IF-M1 medium.
The Biolog IF-M1 medium was modified for plates PM-M1 to M4 by adding the following to 100 mL of Biolog IF-M1: 1.1 mL of 100× penicillin/streptomycin solution, 0.16 mL of 200 mM glutamine (final concentration 0.3 mM), and 5.3 mL of Fetal Bovine Serum (FBS, final concentration 5%). For plates PM-M5 to M8, 5.5 mM α-D-glucose will be added in place of FBS.
During the 48-hour incubation, the only energy source the cells had was the chemical in the well. After this first incubation, Biolog Redox Dye Mix MB was added (10 μL/well) and the plates were incubated under the same conditions for an additional 24 hours. As the cells metabolized the energy source, tetrazolium dye in the media was reduced, producing a purple color according to the amount of NADH generated.
For the last 24 hours of the experiment, the plates were incubated in the Omnilog system, which collects optical density readings every 15 minutes, generating 96 data-points for each well. The system also elaborated the kinetic curve for the metabolic reaction in each well and extrapolated parameters such as slope, highest point, endpoint, area under the curve (AUC), and lag.
At the end of the 24-hour incubation, the plates were analyzed utilizing a microplate reader with readings at 590 and 750 nm. The first value (A590) indicated the highest absorbance peak of the redox dye and the second value (A750) gave a measure of the background noise. The relative absorbance (A590-750) was calculated per well.

Substance	production of NADH in ASD phenotype 1 cells compared to TDs and non-phenotype 1 cells
FGF-1(aFGF): growth factor that selectively targets PI3K-Akt-mTOR by binding the receptor tyrosine kinase	significantly reduced
IGF-I: insulin-like growth factor 1	no significant differences
hGH (Somatotropin): growth factor that selectively targets PI3K-Akt-mTOR by binding the receptor tyrosine kinase	significantly reduced
IL-6: Th1 cytokine	significantly lower
IL-1beta: Th1 cytokine	significantly lower
PDGF-AB: platelet-derived growth factor AB	no significant differences
